Source: publication PMC8286840, “Identifying SARS-CoV-2 antiviral compounds by screening for small molecule inhibitors of Nsp3 papain-like protease” (Biochemical Journal, 2021)
Structures can show the parent of a compound that is named as a salt. Where two headings read alike, the source gives them in different places.

Tests used:
[1] = target: T1, SARS-CoV-2 PLpro (nsp3 1564–1878) (Severe acute respiratory syndrome coronavirus 2, UniProt P0DTD1); assay: biochemical; set-up: FRET-quenched peptide (Pro3) cleavage by PLpro, 10 min pre-incubation, slope over 20 min, normalised to no-compound control; details: low concentration screen, read-out: % of control remaining
[2] = target: T1, SARS-CoV-2 PLpro (nsp3 1564–1878); assay: biochemical; set-up: FRET-quenched peptide (Pro3) cleavage by PLpro, 10 min pre-incubation, slope over 20 min, normalised to no-compound control; details: high concentration screen, read-out: % of control remaining

Structure (SMILES): CCOC(=O)[C@H](Cc1ccc([N+](=O)[O-])cc1)NC(=O)c1ccccc1 [SB 297006]
- remaining activity at 1.25 µM ([1]; Well no.=5801): 98.7%
- remaining activity at 3.75 µM ([2]; Well no.=5801): 98.4%

Structure (SMILES): CN(C)CCOC(C)(c1ccccc1)c1ccccn1 (centres unmarked) [Doxylamine succinate]
- remaining activity at 1.25 µM ([1]; Well no.=497): 102%
- remaining activity at 3.75 µM ([2]; Well no.=497): 104%

Structure (SMILES): CC1CCc2c(N3CCC(O)CC3)c(F)cc3c(=O)c(C(=O)O)cn1c23 (centres unmarked) [Nadifloxacin]
- remaining activity at 1.25 µM ([1]; Well no.=2003): 96.2%
- remaining activity at 3.75 µM ([2]; Well no.=2003): 94.8%

Structure (SMILES): CCCN(CCc1cccs1)C1CCc2c(O)cccc2C1 (racemic) [rac-Rotigotine (Hydrochloride)]
- remaining activity at 1.25 µM ([1]; Well no.=6809): 98.8%
- remaining activity at 3.75 µM ([2]; Well no.=6809): 95.7%

Structure (SMILES): Cc1cc(NC(=O)Nc2ccc(N(C)C)cc2)c2cc(F)cc(F)c2n1 [SB-408124 (Hydrochloride)]
- remaining activity at 1.25 µM ([1]; Well no.=6939): 99.4%
- remaining activity at 3.75 µM ([2]; Well no.=6939): 98.8%

Structure (SMILES): CSC(=N)N [S-Methylisothiourea hemisulfate]
- remaining activity at 1.25 µM ([1]; Well no.=924): 108%
- remaining activity at 3.75 µM ([2]; Well no.=924): 103%

Structure (SMILES): CN(C)CCCC1(c2ccc(F)cc2)OCc2cc(C#N)ccc21 (centres unmarked) [Citalopram]
- remaining activity at 1.25 µM ([1]; Well no.=2265): 97.4%
- remaining activity at 3.75 µM ([2]; Well no.=2265): 103%

Structure (SMILES): CCOC(=O)[C@@H](N)CCC(=O)N[C@@H](CSCc1ccccc1)C(=O)N[C@@H](C(=O)OCC)c1ccccc1 [Ezatiostat]
- remaining activity at 1.25 µM ([1]; Well no.=8366): 91%
- remaining activity at 3.75 µM ([2]; Well no.=8366): 90.3%

Structure (SMILES): COc1ccc(NS(=O)(=O)c2sc3ccc(Cl)cc3c2C)cc1N1CCNCC1 [SB 271046 (Hydrochloride)]
- remaining activity at 1.25 µM ([1]; Well no.=7863): 102%
- remaining activity at 3.75 µM ([2]; Well no.=7863): 101%

Structure (SMILES): CC1(C)NC(=O)N(c2ccc([N+](=O)[O-])c(C(F)(F)F)c2)C1=O [Nilutamide]
- remaining activity at 1.25 µM ([1]; Well no.=1147): 100%
- remaining activity at 3.75 µM ([2]; Well no.=1147): 101%

Structure (SMILES): NC1=NCC2c3ccccc3Cc3ccccc3N12 (centres unmarked) [Epinastine]
- remaining activity at 1.25 µM ([1]; Well no.=6611): 96%
- remaining activity at 3.75 µM ([2]; Well no.=6611): 94.8%

Structure (SMILES): CN1CCC2=C(C1)c1ccccc1Cc1ccccc12 [Setiptiline]
- remaining activity at 1.25 µM ([1]; Well no.=6857): 98.8%
- remaining activity at 3.75 µM ([2]; Well no.=6857): 94.5%

Structure (SMILES): CCN1CCCC1CNC(=O)c1cc(S(N)(=O)=O)ccc1OC (racemic)
- remaining activity at 1.25 µM ([1]; Well no.=1174): 105%
- remaining activity at 3.75 µM ([2]; Well no.=1174): 106%

Structure (SMILES): Nc1ncnc2c1ncn2[C@H]1CC[C@@H](CO)O1 [2',3'-Dideoxyadenosine]
- remaining activity at 1.25 µM ([1]; Well no.=7998): 97.5%
- remaining activity at 3.75 µM ([2]; Well no.=7998): 94.3%

Structure (SMILES): Nc1nc(N)c2nc(-c3ccccc3)c(N)nc2n1 [Triamterene]
- remaining activity at 1.25 µM ([1]; Well no.=1525): 94%
- remaining activity at 3.75 µM ([2]; Well no.=1525): 91.1%

Structure (SMILES): C[C@]12CCC(=O)C=C1CC[C@@H]1[C@@H]2[C@@H](O)C[C@@]2(C)[C@H]1CC[C@]2(O)C(=O)COC(=O)CCC(=O)O [Hydrocortisone 21-hemisuccinate sodium salt]
- remaining activity at 1.25 µM ([1]; Well no.=5653): 99%
- remaining activity at 3.75 µM ([2]; Well no.=5653): 102%

Structure (SMILES): CC(C)C[C@H](NC(=O)CNC(=O)[C@H](Cc1ccc(O)cc1)NC(=O)[C@H](CO)NC(=O)[C@H](Cc1c[nH]c2ccccc12)NC(=O)[C@H](Cc1cnc[nH]1)NC(=O)[C@@H]1CCC(=O)N1)C(=O)N[C@@H](CCCNC(=N)N)C(=O)N1CCC[C@H]1C(=O)NCC(N)=O [Gonadorelin (acetate)]
- remaining activity at 1.25 µM ([1]; Well no.=6276): 104%
- remaining activity at 3.75 µM ([2]; Well no.=6276): 106%

Structure (SMILES): O=C(NCCCN1CCC2(CC1)OCc1ccccc12)[C@H]1CCCN1Cc1ccccc1 [BAN ORL 24]
- remaining activity at 1.25 µM ([1]; Well no.=6946): 97.7%
- remaining activity at 3.75 µM ([2]; Well no.=6946): 102%

Structure (SMILES): CN1[C@@H]2CC[C@H]1C[C@@H](OC(=O)c1cc(Cl)cc(Cl)c1)C2 [3-Tropanyl-3,5-dichlorobenzoate]
- remaining activity at 1.25 µM ([1]; Well no.=1278): 110%
- remaining activity at 3.75 µM ([2]; Well no.=1278): 108%

Structure (SMILES): Nc1nc(=O)c2nc(CNc3ccc(C(=O)N[C@@H](CCC(=O)O)C(=O)O)cc3)cnc2[nH]1 [Folic acid]
- remaining activity at 1.25 µM ([1]; Well no.=7300): 97.8%
- remaining activity at 3.75 µM ([2]; Well no.=7300): 96.1%

Structure (SMILES): O=c1[nH]c2ccc(Cl)cc2c(N[C@@H]2CN3CCC2CC3)c1-c1nc2ccccc2[nH]1 [CHIR-124]
- remaining activity at 1.25 µM ([1]; Well no.=5338): 96.2%
- remaining activity at 3.75 µM ([2]; Well no.=5338): 97.2%

Structure (SMILES): NC(=O)Cc1cccc(C(=O)c2ccccc2)c1N [Nepafenac]
- remaining activity at 1.25 µM ([1]; Well no.=4761): 103%
- remaining activity at 3.75 µM ([2]; Well no.=4761): 104%
